Data: patent US20090246292A1, “ANTIMICROBIAL FORMULATIONS COMPRISING A QUINONE AND A COPPER SALT” (priority 2006, published 2009)
Values joined by “and” are separate entries in the source; they are usually repeats but may differ in a detail not shown here. Equal values may be shown once.

What was measured:
[1] = system: P. acnes PRP-101; assay: Disc diffusion assay (DDA), also supplemented; format: cell-based, Propionibacterium acnes; details: 200 μg per disc
Description: (§4) The propionibacteria were cultured and maintained on Wilkins-Chalgren Anaerobe Medium (agar and broth) at pH 6.0; all cultures were incubated anaerobically at 37° C. for 72 hours.
(§5) A sterile paper disc was impregnated with a sample of the test compound in a suitable solvent and 30 minutes allowed for the solvents to evaporate (where possible). The disc was then placed on an agar plate onto which the test micro-organism had been inoculated. The plate was then incubated under the conditions described above, following which it was examined visually for signs of bacterial growth. […] The diameter of this zone of “inhibition” was measured using a ProtoCOL™ automated zone sizer (Synbiosis, Cambridge, UK).
(§6) For assays using Propionibacterium spp. strains the supplements used in the examples below were lipid (either Tween™ 80 or triolein, both at 1% v/v) and sodium chloride (100 mM).

[2] = system: S. aureus ATCC 29213; assay: Disc diffusion assay (DDA), also supplemented
Description: The staphylococci were cultured and maintained on Mueller-Hinton Medium (agar and broth) at pH 7.2; cultures were incubated aerobically at 37° C. for 19-20 hours.
(d) Disc Diffusion Assay (DDA)
as §5
(f) Supplemented Disc Diffusion Assays
For assays using S. aureus ATCC 29213 the supplements used were sodium chloride (100 mM), lipid (Tween™ 80 at 1% v/v) and horse serum (5% v/v).

[3] = system: P. granulosum PRP-021; assay: Disc diffusion assay (DDA), also supplemented; format: cell-based; details: 200 μg per disc
Description: as §4, §5, §6

[4] = system: P. acnes PRP-007; assay: Disc diffusion assay (DDA), also supplemented; format: cell-based, Propionibacterium acnes; details: 200 μg per disc
Description: as §4, §5, §6

[5] = system: P. acnes PRP-046; assay: Disc diffusion assay (DDA), also supplemented; format: cell-based, Propionibacterium acnes; details: 200 μg per disc
[6] = system: P. acnes PRP-004; assay: Disc diffusion assay (DDA), also supplemented; format: cell-based, Propionibacterium acnes; details: 200 μg per disc
Description: as §4, §5, §6

[7] = system: P. granulosum PRP-006; assay: Disc diffusion assay (DDA), also supplemented; format: cell-based; details: 200 μg per disc
Description: as §4, §5, §6

[8] = system: P. acnes PRP-023; assay: Disc diffusion assay (DDA), also supplemented; format: cell-based, Propionibacterium acnes; details: 200 μg per disc
Description: as §4, §5, §6

[9] = system: P. acnes NCTC 737; assay: Disc diffusion assay (DDA), also supplemented;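 note: paper disc carrying compound placed on inoculated Wilkins-Chalgren Anaerobe agar pH 6.0, with lipid or NaCl supplement where listed, anaerobic 37 °C for 72 h, inhibition zone diameter read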
[10] = system: P. acnes PRP-068; assay: Disc diffusion assay (DDA), also supplemented; format: cell-based, Propionibacterium acnes; details: 200 μg per disc
Description: as §4, §5, §6

[11] = system: S. aureus ATCC 29213; assay: Minimum inhibitory concentration (MIC) assay; format: cell-based, Staphylococcus aureus
Text: (a) Minimum Inhibitory Concentration (MIC) Assay
The culture media were as described above.
The assays included both negative (culture medium with no micro-organisms) and positive (culture medium plus diluting solvent plus micro-organism) controls.

[12] = system: P. acnes NCTC 737; assay: Minimum bactericidal concentration (MBC) assay; format: cell-based, Propionibacterium acnes
Description: (b) Minimum Bactericidal Concentration (MBC) Assay
Following incubation they were examined visually for bacterial growth.

[13] = system: P. acnes PRP-004; details: P. acnes PRP-004 (resistance Tet); agar dilution
Description: (§1) This is a standard international method for quantitatively assessing the antimicrobial activity of a compound in a solid medium. […] A set amount of these antimicrobial stock solutions was then added to molten agar medium (ca. 55° C.), mixed thoroughly, poured into sterile Petri dishes and allowed to cool/set. The culture medium was as described above.
(§2) A Multipoint™ Inoculator (AQS Manufacturing Ltd, UK) was used to inoculate the plates by spotting the inocula onto the surface of the agar, delivering approximately 1 to 2 μl per spot (yielding 10^5 CFU (colony forming units) per spot).
(§3) The plate(s) were then incubated under the conditions described above, following which they were examined visually for signs of bacterial growth. The MIC value was ascertained when there was a marked reduction in, or total loss of, growth on the test plate at the lowest concentration as compared to that of the growth on the control plate.

[14] = system: P. acnes PRP-007; details: P. acnes PRP-007 (resistance Clin); agar dilution
Description: as §1, §2, §3

[15] = system: P. acnes PRP-053; details: P. acnes PRP-053 (resistance Tet/MLS); agar dilution
Description: as §1, §2, §3

[16] = system: P. granulosum PRP-005; details: P. granulosum PRP-005 (resistance MLSK); agar dilution
Description: as §1, §2, §3

[17] = system: P. acnes PRP-039; details: P. acnes PRP-039 (resistance Tet/MLS); agar dilution
Description: as §1, §2, §3

[18] = system: P. granulosum PRP-021; details: P. granulosum PRP-021 (resistance MLS); agar dilution
Description: as §1, §2, §3

[19] = system: P. acnes PRP-102; details: P. acnes PRP-102 (resistance Tet/MLS); agar dilution
Description: as §1, §2, §3

[20] = system: P. granulosum PRP-044; details: P. granulosum PRP-044 (resistance MLS); agar dilution
Description: as §1, §2, §3

[21] = system: P. acnes PRP-008; details: P. acnes PRP-008 (resistance Clin); agar dilution
Description: as §1, §2, §3

[22] = system: P. acnes PRP-017; details: P. acnes PRP-017 (resistance MLS); agar dilution
Description: as §1, §2, §3

[23] = system: P. granulosum PRP-019; details: P. granulosum PRP-019 (resistance MLSK); agar dilution
Description: as §1, §2, §3

[24] = system: P. acnes PRP-068; details: P. acnes PRP-068 (resistance Ery); agar dilution
Description: as §1, §2, §3

[25] = system: P. granulosum PRP-055; details: P. granulosum PRP-055 (resistance None); agar dilution
Description: as §1, §2, §3

[26] = system: P. acnes PRP-002; details: P. acnes PRP-002 (resistance Tet/MLS); agar dilution
Description: as §1, §2, §3

[27] = system: P. granulosum PRP-055; assay: Disc diffusion assay (DDA), also supplemented; format: cell-based; details: 200 μg per disc
Description: as §4, §5, §6

SMILES: O.O.O.O.O.O=S(=O)([O-])[O-].[Cu+2] [Copper (II) sulphate pentahydrate]
- DDA + salt [1]: 53.21 mm
- DDA + lipid ([1]; 1% (v/v) triolein): 55.03 mm
- DDA ([1]; single replicate): 45.30 mm
- DDA ([1]; Table 12 series): 43.49 mm
- DDA [2]: 0 mm and 0.00 (±0.00) mm
- DDA + lipid [2]: 0 mm
- DDA + salt [2]: 0 mm
- DDA + salt & serum [2]: 0 mm and 0.00 (±0.00) mm
- DDA + salt [3]: 32.84 mm
- DDA + lipid ([3]; 1% (v/v) triolein): 28.28 mm
- DDA ([3]; single replicate): 27.67 mm
- DDA ([3]; Table 12 series): 29.59 mm
- DDA + salt [4]: 55.03 mm
- DDA + lipid ([4]; 1% (v/v) triolein): 48.95 mm
- DDA ([4]; single replicate): 56.55 mm
- DDA ([4]; Table 12 series): 40.35 mm
- DDA + salt [5]: 63.54 mm
- DDA + lipid ([5]; 1% (v/v) triolein): 60.81 mm
- DDA ([5]; single replicate): 53.81 mm
- DDA ([5]; Table 12 series): 50.29 mm
- DDA + salt [6]: 52.60 mm
- DDA + lipid ([6]; 1% (v/v) triolein): 45.61 mm
- DDA ([6]; single replicate): 51.08 mm
- DDA ([6]; Table 12 series): 44.85 mm
- DDA + salt [7]: 37.09 mm
- DDA + lipid ([7]; 1% (v/v) triolein): 30.71 mm
- DDA ([7]; single replicate): 31.62 mm
- DDA ([7]; Table 12 series): 27.91 mm
- DDA + salt [8]: 51.38 mm
- DDA + lipid ([8]; 1% (v/v) triolein): 47.43 mm
- DDA ([8]; single replicate): 47.13 mm
- DDA ([8]; Table 12 series): 60.95 mm
- DDA [9]: 49.75 mm and 42.05 (±1.16) mm
- DDA + lipid [9]: 44.03 mm
- DDA + salt [9]: 50.28 mm
- DDA + salt & lipid [9]: 49.96 mm and 49.54 (±1.34) mm
- DDA + salt [10]: 54.73 mm
- DDA + lipid ([10]; 1% (v/v) triolein): 49.56 mm
- DDA ([10]; single replicate): 52.90 mm
- DDA ([10]; Table 12 series): 51.12 mm
- MIC [11]: >250 mg/L
- MBC [12]: 125 mg/L
- MIC [13]: 7.8 mg/L
- MIC [14]: 7.8 mg/L
- MIC [15]: 7.8 mg/L
- MIC [16]: 62.5 mg/L
- MIC [17]: 7.8 mg/L
- MIC [18]: 62.5 mg/L
- MIC [19]: 7.8 mg/L
- MIC [20]: 62.5 mg/L
- MIC [21]: 7.8 mg/L
- MIC [22]: 7.8 mg/L
- MIC [23]: 62.5 mg/L
- MIC [24]: 7.8 mg/L
- MIC [25]: 62.5 mg/L
- MIC [26]: 7.8 mg/L
- DDA + salt [27]: 28.88 mm
- DDA + lipid ([27]; 1% (v/v) triolein): 27.97 mm
- DDA ([27]; single replicate): 27.67 mm
- DDA ([27]; Table 12 series): 31.78 mm
